Read-outs that look alike come from different tables or passages of the source.
Assays:
[1] = system: paramyxovirus RdRP complex; assay type: cell-based, MeV, HPIV-3
[2] = mouse, in vivo
[3] = ferret, in vivo, po
SDH-A = assay: Quantitative immunocytochemistry on HAE cells, nuclear-encoded protein; conditions: read-out: IC50, steady-state level of nuclear-encoded SDH-A
SARS-CoV-2 = assay: microbe, parasite or virus in culture; assay type: cell-based; conditions: Severe acute respiratory syndrome coronavirus 2
[4] = system: SARS-CoV-2 WA1 or VoC alpha, gamma, or delta; assay: Ferret model of SARS-CoV-2 infection, oral treatment; assay type: in vivo
recRSV-A2-L19F = assay type: in vivo, BALB/cJ mice
COX-I = assay: Quantitative immunocytochemistry on HAE cells, mitochondrial-encoded protein; conditions: read-out: IC50, steady-state level of mitochondrial-encoded COX-I
Sendai virus (SeV) = assay: Dose-response inhibition of recombinant mononegaviruses: SeV; assay type: cell-based
[5] = system: vesicular stomatitis virus (VSV); assay type: cell-based
RSV RdRP complex = RSV RdRP complex (Human respiratory syncytial virus A, UniProt P28887); assay type: cell-based
in vitro [6] = conditions: human
SARS-CoV-2 WA1 isolate = assay: Virus yield reduction of SARS-CoV-2 WA1 shed apically from ALI HAE organoids; assay type: cell-based
Text: To test activity against SARS-CoV-2 in the human airway organoids, we first confirmed that the WA1 isolate replicated efficiently in HAEs of all donors tested (Fig. 5, A to C, and fig. S15).
Fig. 5. Efficacy of 4′-FlU against SARS-CoV-2 replication in HAE organoids. (A) Multicycle growth curve of SARS-CoV-2 WA1 isolate on ALI HAE from two donors. Shed virus was harvested daily and titered by plaque assay (n = 3). (B and C) Confocal microscopy of ALI HAE cells from “F1” donor mock-infected (B) or infected (C) with SARS-CoV-2 WA1 isolate, at 3 days post-infection. SARS-CoV-2 infected cells, goblet cells, and nuclei were stained with anti-SARS-CoV-2 N immunostaining, anti-MUC5AC immunostaining, and Hoechst 34580, pseudo-colored in red, green, and blue, respectively. z-stacks of 35 μm slices (1 μm thick) with 63× objective with oil immersion. […] Rare ciliated cells positive for N are represented in (F).

[7] = human, 20 μM
[8] = molecular target: RdRP activity of Nipah virus (NiV) (Nipah virus, UniProt Q997F0); assay type: cell-based
rabies virus (RabV) = assay type: cell-based
[9] = Single oral dose pharmacokinetics in ferret plasma; conditions: in vivo
measles virus (MeV) = assay: Dose-response inhibition of recombinant mononegaviruses: MeV; assay type: cell-based
[10] = system: human parainfluenza virus type 3 (HPIV3); assay: Dose-response inhibition of recombinant mononegaviruses: HPIV3; assay type: cell-based
[11] = system: RSV (recRSV A2-L19F and clinical RSV isolates); assay: microbe, parasite or virus in culture; assay type: cell-based; conditions: human respiratory syncytial virus, HEp-2, read-out: half-maximal effective concentrations (EC50 values)
in vitro [12] = assay: in vitro
[13] = system: O=c1ccn(C2OC(F)(COP(=O)(O)OP(=O)(O)OP(=O)(O)O)C(O)C2O)c(=O)[nH]1; assay: purified protein, by the assay type; conditions: other: Fig. 2D, Michaelis-Menten model
in vitro [14] = conditions: human; remark: listed apart in the source
[15] = WA1, once-daily oral 20 mg/kg from 12 hours after infection, within 12 hours of treatment onset

O=c1ccn([C@@H]2O[C@](F)(CO)[C@@H](O)[C@H]2O)c(=O)[nH]1 [4′-FlU, 4′-fluorouridine]
RdRP complex activity in minireplicon [1]: inhibited | effect on the hematopoietic system (blood analysis) [2]: no antiproliferative effect | overall exposure ([3]; 15 mg/kg): 154 ± 27.6 µM·h | overall exposure ([3]; 50 mg/kg): 413.1 ± 78.1 µM·h | IC50 (SDH-A): 273 µM | EC50 (SARS-CoV-2): 0.2 to 0.6 µM | virus burden in nasal lavages ([4]; VoC alpha, gamma, delta, 36 to 48 hours after onset of oral treatment): below the level of detection | reduction of virus burden in nasal lavages [4, 15]: approximately three orders of magnitude | virus burden in nasal lavages [4, 15]: < 50 PFU/ml | time of treatment until shedding of infectious particles ceased completely ([4]; all animals, 3 days post-infection): 2.5 days | bioluminescence intensity in lungs (IVIS) (recRSV-A2-L19F; mouse, in vivo): considerable reduction | lung virus burden compared with vehicle-treated animals (recRSV-A2-L19F; mouse, in vivo): statistically significant reduction | lung virus load compared with vehicle-treated animals (recRSV-A2-L19F; mouse, in vivo): statistically significant reduction | reduction in lung virus load (recRSV-A2-L19F; mouse, in vivo, po, 5 mg/kg): nearly two orders of magnitude | therapeutic window (time of treatment start after infection) (recRSV-A2-L19F; requiring reduction of lung virus load of at least one order of magnitude): 24 h | effect of twice-daily dosing regimen on efficacy (recRSV-A2-L19F; versus once-daily oral dosing): did not significantly enhance efficacy | IC50 (COX-I): 147 µM | active concentrations (Sendai virus (SeV)): submicromolar | active concentrations [5]: submicromolar | RdRP complex activity in minireplicon (RSV RdRP complex): inhibited | CC50 (in vitro [6]): 169 µM | SARS-CoV-2 nucleocapsid protein in epithelium by confocal microscopy (SARS-CoV-2 WA1 isolate; 50 μM 4′-FlU): largely devoid | maximal effect size, reduction of apical virus shedding (SARS-CoV-2 WA1 isolate; 50 μM basolateral 4′-FlU): approximately two orders of magnitude | intracellular level ([7]; 1 h): 3.42 nmol/million cells | RdRP activity in NiV minireplicon reporter assay [8]: efficiently inhibited | active concentrations (rabies virus (RabV)): submicromolar | Cmax ([9]; 15 mg/kg): 34.8 µM | Cmax ([9]; 50 mg/kg): 63.3 µM | active concentrations (measles virus (MeV)): submicromolar | active concentrations [10]: submicromolar | EC50 [11]: 0.61 to 1.2 µM | CC50 (in vitro [12]): 250 µM

recombinant RSV RdRP complexes (L and P proteins) (Human respiratory syncytial virus A2)
Km [13]: 24.9 µM

O=c1ccn(C2OC(F)(COP(=O)(O)OP(=O)(O)OP(=O)(O)O)C(O)C2O)c(=O)[nH]1 (stereo not drawn) [4′-FlU-TP]
half-life at 20 μM (in vitro [14]): 9.7 h | intracellular concentration at peak ([7]; 4 h): 10.38 nmol/million cells | intracellular concentration at plateau ([7]; 24 h): 1.31 nmol/million cells

From article PMC9206510, “4′-Fluorouridine is an oral antiviral that blocks respiratory syncytial virus and SARS-CoV-2 replication” (Science (New York, N.y.), 2021)
